# In article PMC10266261, “A High-Throughput Approach to Identify Specific Neurotoxicants / Developmental Toxicants in Human Neuronal Cell Function Assays” (ALTEX, 2018):
# Read-outs that look alike come from different tables or passages of the source.
# Columns and labels:
# [1] = system: immature human dorsal root ganglia neurons; test: cells; format: cell-based; conditions: for classification in the PeriTox screen: three independent screen runs, up to 20 μM; for EC50: Homo sapiens, Neuron
# Procedure: The PeriTox test (= UKN5) is based on cells differentiated from the H9 human embryonic stem cell (hESC) line (WA09 line), which was obtained from WiCell (Madison, WI, USA). The import of cells and the experiments were authorized under license no. 170–79-1–4-27 (Robert Koch Institute, Berlin, Germany).
# After one hour, 25 μl PDM with 4x concentrated serial dilutions of the test compounds was added to the cells. At 23 h after treatment, the cells were stained with SM and incubated for one additional hour at 37°C.
# (§1) Image acquisition was performed with an ArrayScan VTI HCS (high content imaging) microscope (Cellomics, Waltham, MA, USA).
# After automated imaging, an algorithm was applied that identified the neuronal somata (based on identified nuclei) and subtracted the somatic area from the total neuronal area to obtain the neurite area (NA), i.e., the number of pixels per field covered by neurites. […] Viability (V) was expressed as percentage of live cells relative to control.
# (§2) Neurite area (NA) and viability (V) were always expressed as percentage of the DMSO control. In a first step, matched technical replicates were averaged. […] Curve fitting was performed employing a 4-parameter log-logistic function with least squares fit. The upper asymptote of the fit was forced to 100%, the lower asymptote was variable. The variation of DMSO controls was calculated from pooled values of DMSO controls over several experiments.
# For calculation of the benchmark concentration values (BMC), a benchmark response (BMR) of three standard deviations of DMSO solvent controls of all assay plates (= “3 x noise level”) was used. […] To identify specific effects on neurite outgrowth, the EC50 ratio of EC50(viability)/EC50(neurite area) was calculated.
# This method uses human immature dorsal root ganglia neurons (iDRG) that are produced from pluripotent stem cells that are still in a phase of neurite growth. Like in the NeuriTox assay, exposure to toxicants in this test is for 24 h, and readouts for viability (V) and neurite area (NA) are also conducted in a similar way (Fig. 7A).
# LUHMES cells = test: cells; format: cell-based, human; conditions: for classification / outcome after hit confirmation or re-testing (EC50 prediction model): EC50 ratio V/NA ≥ 4 specific, < 4 cytotoxic; for classification in the NeuriTox screen: hit = NA decreased at concentrations not affecting viability
# Procedure: For the NeuriTox test (= UKN4), LUHMES (Lund human mesencephalic) cells were characterized and cultured as described in detail earlier ([Krug et al., 2013]; [Lotharius et al., 2005]; [Scholz et al., 2011]). Briefly, cells were maintained in proliferation medium (PM: AdvDMEM/F12 supplemented with 2 mM glutamine, 1x N2 supplement and 40 ng/ml fibroblast growth factor-2) in PLO/fibronectin coated flasks (50 μg/ml poly-L-ornithine (PLO) and 1 μg/ml fibronectin). For differentiation, cells were seeded at a density of 46,000 cells/cm^2 in PM. After 24 h, they were switched to differentiation medium (DM) containing AdvDMEM/F12 supplemented with 2 mM glutamine, 1x N2 supplement, 2.25 μM tetracycline, 1 mM dibutyryl 3’,5’-cyclic adenosine monophosphate (cAMP), and 2 ng/ml recombinant human glial cell derived neurotrophic factor (GDNF).
# For the NeuriTox test, LUHMES cells were differentiated for 48 h and seeded into 96 well plates at a density of 100,000 cells/cm^2 in a volume of 90 μl DM without cAMP and GDNF. Treatment was initiated applying 10 μl of a 10x concentrated treatment solution one hour after seeding. At 24 h after treatment, staining mix (SM) was applied (final concentrations: 1 μg/ml H-33342, 1 μM calcein-AM).
# as §1
# The procedure was applied as detailed earlier ([Hoelting et al., 2016]; [Stiegler et al., 2011]). After automated imaging, an algorithm was applied that identified the neuronal somata (based on identified nuclei) and subtracted the somatic area from the total neuronal area to obtain the neurite area (NA), i.e., the number of pixels per field covered by neurites. Viability analysis was performed on the same pictures using combined information from H-33342 and calcein channels. Cells with normal-sized nuclei that were calcein-positive were counted as live cells, whereas H-33342 single-positive cells were counted as dead cells. Viability (V) was expressed as percentage of live cells relative to control.
# as §2
# For calculation of the benchmark concentration values (BMC), a benchmark response (BMR) of three standard deviations of DMSO solvent controls of all assay plates (= “3 x noise level”) was used. […] To identify specific effects on neurite outgrowth, the EC50 ratio of EC50(viability)/EC50(neurite area) was calculated. The NeuriTox test system has a specificity threshold ratio of 4, the PeriTox test system has one of 3 ([Hoelting et al., 2016]; [Krug et al., 2013]).
# If V was not affected at the highest tested concentration (HTC), then 4 x HTC was used as surrogate EC50(V) (marked with ♦; for EC25 calculation, the HTC was doubled in this case) ([Krug et al., 2013]).
# For the actual screening procedure, a defined workflow was established that contained several pre-determined decision points. All compounds were tested at 1:1000 dilutions of their stock concentration, and at subsequent 3-fold dilution levels. For most compounds, the stock was 20 mM, so that the test concentrations were 20 μM, 6.7 μM, 2.2 μM, 0.7 μM, 0.25 μM, 82 nM, 27 nM, 9 nM, 3 nM, and 1 nM. For 2,2’,4,4’,5,5’-hexabromodiphenyl-ether, chrysene, dibenz(a,h)anthracene, bis(tributyltin) oxide, benzo[g,h,i]perylene, and 2,3,7,8-tetrachlorodibenzo-p-dioxin lower stock concentrations were used.
# cardiomyocytes = conditions: specific = cardio-physiologic parameters affected after 30 min at three-fold lower concentration than viability and no effect on viability after 24 h; ref Sirenko et al., 2017; cited from earlier work
# [2] = screen data, 24 h exposure, up to 20 μM, read-out: EC50(NA), neurite area
# [3] = screen data, 24 h exposure, up to 20 μM, read-out: EC50(V), viability
# [4] = screen data, specificity threshold 4
# [5] = 24 h, read-out: EC50(NA), neurite area
# [6] = read-out: EC50(V), viability, surrogate marked ♦
# [7] = Homo sapiens, 24 h, read-out: EC50(NA), neurite area
compound,measurement,setting,value
[CH3][Hg][Cl] [Methylmercury (II) chloride],classification in the PeriTox screen,[1],active hit compounds
same,EC50,LUHMES cells; [2],90 nM
same,EC50,LUHMES cells; [3],160 nM
same,ratio EC50(V)/EC50(NA),LUHMES cells; [4],1.8
"Brc1ccc(Oc2cc(Br)c(Br)cc2Br)c(Br)c1 [PBDE, 2,2’,4,4’,5’-pentabromodiphenylether]",classification / outcome after hit confirmation or re-testing (EC50 prediction model),LUHMES cells,unspecific cytotoxicants
C=C(C)[C@H]1Cc2c(ccc3c2O[C@@H]2COc4cc(OC)c(OC)cc4[C@@H]2C3=O)O1 [Rotenone],classification in the cardiotoxicity test method,cardiomyocytes,generally cytotoxic
same,EC50,[1]; [5],50 nM
same,EC50,[1]; [6],16500 nM
same,ratio EC50(V)/EC50(NA),"[1]; hit confirmation, ≥ 3 = specific hit",330
same,classification in the PeriTox screen,[1],active hit compounds
same,EC50,LUHMES cells; [7],500 nM
same,EC50,"LUHMES cells; Homo sapiens, read-out: EC50(V), viability, surrogate marked ♦",40000 nM
same,classification in the NeuriTox screen,"LUHMES cells; up to 20 μM, 24 h",active hit compounds
"Brc1ccc(Oc2ccc(Br)cc2Br)c(Br)c1 [TBDE, 2,2’,4,4’-tetrabromodiphenylether]",classification / outcome after hit confirmation or re-testing (EC50 prediction model),LUHMES cells,unspecific cytotoxicants
CCN(CC)C(=S)SSC(=S)N(CC)CC [Tetraethylthiuram disulfide],EC50,LUHMES cells; [2],3700 nM
same,EC50,LUHMES cells; [3],2900 nM
same,ratio EC50(V)/EC50(NA),LUHMES cells; [4],0.8
O=P(Oc1ccccc1)(Oc1ccccc1)Oc1ccccc1 [Triphenyl phosphate],classification / outcome after hit confirmation or re-testing (EC50 prediction model),LUHMES cells,clearly non-toxic at concentrations up to 20 μM
same,EC50,"LUHMES cells; Homo sapiens, read-out: toxicity EC50",> 200000 nM
"CCCC(CCC)C(=O)O [VPA, valproic acid]",classification / outcome after hit confirmation (EC50 ratio viability/neurite area ≥ 3),[1],cytotoxic
CC(C)[C@@H]1NC(=O)[C@H](C)OC(=O)[C@@H](C(C)C)NC(=O)[C@@H](C(C)C)OC(=O)[C@H](C(C)C)NC(=O)[C@H](C)OC(=O)[C@@H](C(C)C)NC(=O)[C@@H](C(C)C)OC(=O)[C@H](C(C)C)NC(=O)[C@H](C)OC(=O)[C@@H](C(C)C)NC(=O)[C@@H](C(C)C)OC1=O [Valinomycin],classification in the cardiotoxicity test method,cardiomyocytes,generally cytotoxic
same,EC50,[1]; [5],3 nM
same,EC50,"[1]; read-out: EC50(NA), neurite area",20 nM
same,EC50,[1]; [6],200 nM
same,classification in the PeriTox screen,[1],active hit compounds
same,EC50,LUHMES cells; [7],10 nM
same,EC50,"LUHMES cells; Homo sapiens, 24 h, read-out: EC50(V), viability",6200 nM
same,EC50,"LUHMES cells; Homo sapiens, read-out: EC50 for reduction of neurite area",10 nM
same,ratio EC50(V)/EC50(NA),"LUHMES cells; hit confirmation, ≥ 4 = specific (developmental) neurotoxicant",620
same,classification by BMC ratio (BMCV/BMCNA),"LUHMES cells; screen data, threshold changed to 2",specific DNT-compounds
same,classification by BMC ratio (BMCV/BMCNA),"LUHMES cells; screen data, threshold set at 3.16",cytotoxic
same,classification in the NeuriTox screen,"LUHMES cells; up to 20 μM, 24 h",active hit compounds
CCC[CH2][Sn]([CH2]CCC)([CH2]CCC)[O][Sn]([CH2]CCC)([CH2]CCC)[CH2]CCC [bis(tributyltin)oxide],classification in the NeuriTox screen,"LUHMES cells; up to 20 μM, 24 h",cytotoxic
O=C1N[C@@H]2C(=C[C@H](O)[C@@H](O)[C@H]2O)c2cc3c(c(O)c21)OCO3 [narciclasine],neurite area vs solvent control,"LUHMES cells; 50 nM, 24 h, positive control",significantly reduced
CC(C)(C)C(O)(CCc1ccc(Cl)cc1)Cn1cncn1 (stereo not drawn) [tebuconazole],EC50,"LUHMES cells; Homo sapiens, hit confirmation / re-testing, adjusted concentration range, 24 h, read-out: EC50(NA), neurite area",142000 nM
same,EC50,"LUHMES cells; Homo sapiens, re-testing, extended concentration range, read-out: toxicity EC50",238000 nM
